Experimental data published in patent publication US10226470B2, “DGAT1 inhibition for treatment of demyelinating inflammatory disease” (The Board of Trustees of the Leland Stanford Junior …, priority 2014, dated 2019).

Experiments:
[1] = test system: WT CD4+CD25− cells; assay: In vitro T regulatory cell induction, WT T cells; type: cell-based, mouse
Method: (§1) FIG. 7. DGAT1 limits retinoic acid-dependent Treg induction. WT or DGAT1 KO CD4+CD25− cells were incubated with T cell-depleted DGAT1 KO MLN cells in delipidated serum in the absence or presence of: soluble anti-CD3; TGFβ; retinol (ROL; 10 nM); A922500 (100 nM); or AM580 (10 nM) where indicated. After 3 days, TCRβ+ lymphocytes in the live gate were analyzed for expression of CD4 and Foxp3 by flow cytometry. (a) Representative FACS plots show the frequency of WT (top panels) or DGAT1 KO (bottom panels) CD4+Foxp3+ Tregs within the gate. (b) FACS data are summarized in bar graph form. Bars depict the mean+SEM of triplicate wells. Two independent experiments were performed.
(§2) This acyl-CoA:retinol acyltransferase (ARAT) function enables DGAT1 to convert retinol (vitamin A) to its storage retinyl ester form. RA, the active metabolite of vitamin A, supports Treg induction; however, T lymphocytes cannot synthesize RA autonomously. We hypothesized that T cell-expressed DGAT1 functions as an ARAT, diverting retinol to its storage ester form. This would lead to a reduction in levels of RA locally. Conversely, DGAT1 deficiency would prevent this sequestration of retinol, leading to elevated RA and Treg induction. […]

[2] = daily 10 mg/kg; models of obesity; cited from earlier work
[3] = test system: C57BL/6 mice; assay: Tolerability observations in treated mice (behavior, leukocytes, organ wet weights and gross morphology); type: in vivo, mouse; conditions: mice induced to develop EAE, treated from day 12 p.i.
From the text: To address this possibility, we first determined whether pharmacological inhibition of DGAT1 could modulate clinical EAE. […] Suppression of clinical disease was evident as early as 2 days after dosing began and persisted until termination of the experiment at day 30 p.i. (FIG. 3a). Overall, the compound delayed onset of clinical signs by an average of 6 days and reduced disease incidence at day 30 p.i. by 30%. […] Thus, administration of a selective DGAT1 inhibitor attenuates EAE.

[4] = test system: C57BL/6 mice with MOG35-55-induced EAE; assay: EAE induced by active immunization with MOG35-55/CFA, clinical scoring and CNS histology; type: in vivo, mouse
Method: In addition, administration of a selective DGAT1 inhibitor attenuated MOG35-55-induced EAE. C57BL/6 mice (8 weeks old) were induced to develop EAE by active immunization with MOG35-55/CFA. Twelve days after disease induction (indicated by the arrow), mice were administered vehicle (10% Captisol) or 10 mg/kg DGAT1 inhibitor A922500 once daily via s.c. injection and followed for clinical disease (n=10/group). Clinical data are presented as the mean score ±SEM. The scoring system is as follows: 0, normal or healthy; 1, limp tail; 2, hindlimb weakness; 3, hindlimb paralysis; 4, hindlimb and forelimb paralysis. *P<0.05 (days 14-30) by Mann-Whitney U test.
EAE models. For EAE induction by active immunization, mice (8-10 weeks old) were immunized via subcutaneous (s.c.) injection with 100 μg MOG35-55 emulsified in CFA as described. Mice also received 250 ng pertussis toxin (List Biological Labs) via tail vein injection at the time of MOG35-55/CFA immunization and again 2 days later. Clinical disease was scored as follows: 0=normal or healthy; 1=flaccid tail; 2=hindlimb weakness; 3=hindlimb paralysis; 4=hindlimb and forelimb paralysis; 5=moribund or dead. Where indicated, A922500 was formulated in 10% Captisol vehicle for in vivo dosing via s.c. injection (100 μl volume). Individuals who conducted the clinical scoring were blinded to the treatment that the mice received.
Histology. Brain and spinal cord tissues were fixed in 10% buffered formalin. Paraffin-embedded tissues were then stained with H&E, and CNS inflammatory foci (>10 mononuclear cells/focus) in leptomeninges and parenchyma were counted in each mouse sample in a blinded fashion.
Statistics. The Mann-Whitney U test was applied to analyze nonparametric clinical EAE data, and the Student's t test was used to analyze all parametric data. The Fisher's exact test was used to compare disease incidence.

[5] = test system: DGAT1 KO CD4+CD25− cells; assay: In vitro T regulatory cell induction, DGAT1 KO T cells; type: cell-based, mouse; conditions: retinol 10 nM; anti-CD3/TGFβ, DGAT1 KO MLN cells, delipidated serum, 3 days
Method: as §1, §2

[6] = 30 days after EAE induction, mean (SEM), 10 mg/kg s.c. once daily from day 12

For `CC1(C)CCC(C)(C)c2cc(C(=O)Nc3ccc(C(=O)O)cc3)ccc21` [AM580], the “Treg induction by RAR agonist” value ([1]; AM580 10 nM, WT and DGAT1 KO cells, DGAT1 deficiency had no significant effect) was “enhanced Treg induction”.
For `O=C(Nc1ccccc1)Nc1ccc(-c2ccc(C(=O)[C@@H]3CCC[C@H]3C(=O)O)cc2)cc1` [A922500], the “Serum TG levels” value [2] is listed as “significantly reduces serum TG levels”, the “Leukocyte numbers or composition within peripheral lymphoid tissues” value [3] is listed as “did not induce overt behavioral changes or significantly alter leukocyte numbers or composition within peripheral lymphoid tissues” and the “Organ toxicity (wet weights and gross morphology of several organs incl. spleen and thymus)” value [3] is listed as “did not cause detectable organ toxicity”. For the same compound, the Overt behavioral changes [3] was “did not induce overt behavioral changes”, the “Time after start of dosing at which suppression of clinical disease was evident” value ([4]; 10 mg/kg daily from day 12 p.i., persisted until day 30 p.i.) was 2 days and the “Mean maximal score (SEM)” value ([4]; 10 mg/kg s.c. once daily from day 12 p.i., clinical score 0-5) was 1.4 (0.4)^ns. The “Mean day of onset (SEM)” value ([4]; 10 mg/kg s.c. once daily from day 12 p.i., only animals that developed EAE) was 20.1 (1.9)* day, the “No. of CNS inflammatory foci, Meninges” value [4, 6] was 19.8 (8.8) and the “No. of CNS inflammatory foci, Parenchyma” value [4, 6] was 29.9 (12.4). The “Delay of onset of clinical signs” value ([4]; average, versus vehicle, 10 mg/kg daily from day 12 p.i.) was 6 days, the “Effect on clinical EAE” value ([4]; daily 10 mg/kg, P<0.05 days 14-30 p.i. by Mann-Whitney U test) was “attenuated EAE” and the “Reduction of disease incidence at day 30 p.i.” value ([4]; versus vehicle, 10 mg/kg daily from day 12 p.i.) was 30%. For the same compound, the “Difference between DGAT1−/− and WT Treg induction responses to retinol” value ([1]; A922500 100 nM with retinol 10 nM, anti-CD3/TGFβ, 3 days) was “abrogated the difference between DGAT1−/− and WT cell responses”.
For `CC1=C(/C=C/C(C)=C/C=C/C(C)=C/CO)C(C)(C)CCC1` [retinol, All-trans-retinol], the “Foxp3+ Treg induction” value [5] was “significantly enhanced”.
